From patent US20240082223A1, “DIHYDROFUROPYRIDINE DERIVATIVES AS RHO- KINASE INHIBITORS” (CHIESI FARMACEUTICI S.P.A., priority 2020, published 2024)

Legend:
Format in all cases: biochemical
[1] = target: T1, ROCK1 (Homo sapiens, UniProt Q13464); assay: In vitro inhibitory activity assay ROCK1 (Method A, ADP-Glo, 10 μM ATP); conditions: ATP 10 μM, read-out: Method A ROCK 1 (Ki)
Procedure, shortened: (§1)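 Kinase reaction at 25 °C with 2.5 μM myelin basic protein, 10 μM ATP, 40 mM Tris pH 7.5, 20 mM MgCl2, 1% DMSO; enzyme and compound preincubated 30 min, reaction run 1 h, ADP measured by ADP-Glo luminescence. IC50 from variable-slope sigmoidal fit (0–100% fixed); Ki via Cheng-Prusoff.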

[2] = target: T2, ROCK2 (Homo sapiens, UniProt O75116); assay: In vitro inhibitory activity assay ROCK2 (Method A, ADP-Glo, 10 μM ATP); conditions: ATP 10 μM, read-out: Method A ROCK 2 (Ki)
T2 sequence (O75116 whole entry): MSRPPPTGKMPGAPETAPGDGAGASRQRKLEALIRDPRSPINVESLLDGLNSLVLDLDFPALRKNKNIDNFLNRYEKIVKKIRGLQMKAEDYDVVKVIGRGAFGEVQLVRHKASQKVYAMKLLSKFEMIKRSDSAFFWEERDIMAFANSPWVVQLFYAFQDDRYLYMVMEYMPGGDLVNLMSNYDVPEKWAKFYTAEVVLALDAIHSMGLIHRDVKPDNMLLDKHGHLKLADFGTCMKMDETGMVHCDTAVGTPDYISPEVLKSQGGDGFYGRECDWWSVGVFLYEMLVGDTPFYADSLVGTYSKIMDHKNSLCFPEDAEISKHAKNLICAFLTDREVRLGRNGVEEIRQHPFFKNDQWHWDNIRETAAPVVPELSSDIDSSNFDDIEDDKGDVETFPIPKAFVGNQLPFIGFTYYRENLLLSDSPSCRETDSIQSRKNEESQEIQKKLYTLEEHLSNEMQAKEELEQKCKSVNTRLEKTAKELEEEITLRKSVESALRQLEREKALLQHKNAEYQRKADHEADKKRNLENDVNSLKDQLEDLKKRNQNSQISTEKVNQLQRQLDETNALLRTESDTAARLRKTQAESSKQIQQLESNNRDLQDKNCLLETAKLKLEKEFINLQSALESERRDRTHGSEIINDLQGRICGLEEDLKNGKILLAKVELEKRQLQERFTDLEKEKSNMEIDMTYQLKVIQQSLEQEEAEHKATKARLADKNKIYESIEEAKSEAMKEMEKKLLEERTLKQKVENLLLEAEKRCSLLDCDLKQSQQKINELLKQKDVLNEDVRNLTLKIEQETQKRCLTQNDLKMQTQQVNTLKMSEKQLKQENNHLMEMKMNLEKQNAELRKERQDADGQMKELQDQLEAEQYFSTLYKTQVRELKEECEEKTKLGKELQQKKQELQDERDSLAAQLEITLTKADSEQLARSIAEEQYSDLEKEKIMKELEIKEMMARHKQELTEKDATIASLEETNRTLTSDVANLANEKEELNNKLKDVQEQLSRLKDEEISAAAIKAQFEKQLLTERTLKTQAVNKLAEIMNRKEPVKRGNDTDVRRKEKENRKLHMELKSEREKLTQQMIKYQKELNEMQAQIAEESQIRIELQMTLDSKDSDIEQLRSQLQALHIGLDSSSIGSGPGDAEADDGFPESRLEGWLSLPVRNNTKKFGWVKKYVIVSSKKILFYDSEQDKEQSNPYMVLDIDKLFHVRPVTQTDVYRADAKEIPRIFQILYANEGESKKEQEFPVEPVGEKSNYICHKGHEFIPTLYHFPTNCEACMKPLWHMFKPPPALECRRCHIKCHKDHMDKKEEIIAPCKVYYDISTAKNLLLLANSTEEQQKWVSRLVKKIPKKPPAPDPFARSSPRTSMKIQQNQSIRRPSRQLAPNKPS
Procedure, shortened: as §1

[3] = target: T2, ROCK2; assay: In vitro inhibitory activity assay ROCK2 (Method B, ADP-Glo, 200 μM ATP); conditions: ATP 200 μM, read-out: Method B ROCK 2 (Ki)
Description: (§2) In Vitro Inhibitory Activity Assay Description ROCK1 and ROCK2
(§3) The effectiveness of compounds of the present invention to inhibit Rho kinase activity can be determined in a 10 μl assay containing 40 mM Tris pH7.5, 20 mM MgCl2 0.1 mg/mL BSA, 50 μM DTT and 2.5 μM peptide substrate (Myelin Basic Protein) using an ADP-Glo kit (Promega). Compounds were dissolved in DMSO such that the final concentration of DMSO was 1% in the assay. All reactions/incubations are performed at 25° C. Compound (2 μL) and either Rho kinase 1 or 2 (4 μl) were mixed and incubated for 30 min. Reactions were initiated by addition of ATP (4 μL) such that the final concentration of ATP in the assay was 200 μM. After a 1 hour incubation […] of ADP-Glo Reagent was added and after a further 45 minute incubation 20 μL of Kinase Detection Buffer was added and the mixture incubated for a further 30 minutes. The luminescent signal was measured on a luminometer. […] Compounds were tested in dose-response format and the inhibition of kinase activity was calculated at each concentration of compound. To determine the IC50 (concentration of compound required to inhibit 50% of the enzyme activity) data were fit to a plot of % inhibition vs Log10 compound concentration using a sigmoidal fit with a variable slope and fixing the maximum to 100% and the minimum to 0%. To determine the Ki values the Cheng-Prusoff equation was utilized ([…].

[4] = target: PKA (Homo sapiens, UniProt P17612); assay: In vitro inhibitory activity assay for PKA (ADP-Glo), reported as selectivity ratio vs ROCK2; conditions: Ki PKA divided by Ki ROCK2 (method B)
Description: In vitro inhibitory activity assay description for PKA
The effectiveness of compounds of the present invention to inhibit PKA activity can be determined in a […], assay containing 40 mM Tris pH7.5, 20 mM MgCl2 0.1 mg/mL BSA, 50 μM DTT and 260 μM peptide substrate (kemptide) using an ADP-Glo kit (Promega). Compounds were dissolved in DMSO such that the final concentration of DMSO was 1% in the assay. All reactions/incubations are performed at 25° C. Compound and PKA enzyme (6 μl) were mixed and incubated for 30 min. Reactions were initiated by addition of ATP (4 μL) such that the final concentration of ATP in the assay was 10 μM. After a 30 minute incubation 10 μL of ADP-Glo Reagent was added and after a further 1 hour incubation 20 μL of Kinase Detection Buffer was added and the mixture incubated for a further 45 minutes. The luminescent signal was measured on a luminometer. […] Compounds were tested in dose-response format and the inhibition of kinase activity was calculated at each concentration of compound. To determine the IC50 (concentration of compound required to inhibit 50% of the enzyme activity) data were fit to a plot of % inhibition vs Log10 compound concentration using a sigmoidal fit with a variable slope and fixing the maximum to 100% and the minimum to 0%. To determine the Ki values the Cheng-Prusoff equation was utilized (Ki=IC50/(1+[S]/Km).
In vitro inhibitory activities for PKA were reported as selectivity ratio vs. ROCK2. Selectivity ratio PKA/ROCK2 was calculated by dividing the Ki value for PKA by Ki value of ROCK2 (method B) and reported into table 1.

[5] = target: T1, ROCK1; assay: In vitro inhibitory activity assay ROCK1 (Method B, ADP-Glo, 200 μM ATP); conditions: ATP 200 μM, read-out: Method B ROCK 1 (Ki)
Description: as §2, §3

T1 sequence (Q13464 whole entry): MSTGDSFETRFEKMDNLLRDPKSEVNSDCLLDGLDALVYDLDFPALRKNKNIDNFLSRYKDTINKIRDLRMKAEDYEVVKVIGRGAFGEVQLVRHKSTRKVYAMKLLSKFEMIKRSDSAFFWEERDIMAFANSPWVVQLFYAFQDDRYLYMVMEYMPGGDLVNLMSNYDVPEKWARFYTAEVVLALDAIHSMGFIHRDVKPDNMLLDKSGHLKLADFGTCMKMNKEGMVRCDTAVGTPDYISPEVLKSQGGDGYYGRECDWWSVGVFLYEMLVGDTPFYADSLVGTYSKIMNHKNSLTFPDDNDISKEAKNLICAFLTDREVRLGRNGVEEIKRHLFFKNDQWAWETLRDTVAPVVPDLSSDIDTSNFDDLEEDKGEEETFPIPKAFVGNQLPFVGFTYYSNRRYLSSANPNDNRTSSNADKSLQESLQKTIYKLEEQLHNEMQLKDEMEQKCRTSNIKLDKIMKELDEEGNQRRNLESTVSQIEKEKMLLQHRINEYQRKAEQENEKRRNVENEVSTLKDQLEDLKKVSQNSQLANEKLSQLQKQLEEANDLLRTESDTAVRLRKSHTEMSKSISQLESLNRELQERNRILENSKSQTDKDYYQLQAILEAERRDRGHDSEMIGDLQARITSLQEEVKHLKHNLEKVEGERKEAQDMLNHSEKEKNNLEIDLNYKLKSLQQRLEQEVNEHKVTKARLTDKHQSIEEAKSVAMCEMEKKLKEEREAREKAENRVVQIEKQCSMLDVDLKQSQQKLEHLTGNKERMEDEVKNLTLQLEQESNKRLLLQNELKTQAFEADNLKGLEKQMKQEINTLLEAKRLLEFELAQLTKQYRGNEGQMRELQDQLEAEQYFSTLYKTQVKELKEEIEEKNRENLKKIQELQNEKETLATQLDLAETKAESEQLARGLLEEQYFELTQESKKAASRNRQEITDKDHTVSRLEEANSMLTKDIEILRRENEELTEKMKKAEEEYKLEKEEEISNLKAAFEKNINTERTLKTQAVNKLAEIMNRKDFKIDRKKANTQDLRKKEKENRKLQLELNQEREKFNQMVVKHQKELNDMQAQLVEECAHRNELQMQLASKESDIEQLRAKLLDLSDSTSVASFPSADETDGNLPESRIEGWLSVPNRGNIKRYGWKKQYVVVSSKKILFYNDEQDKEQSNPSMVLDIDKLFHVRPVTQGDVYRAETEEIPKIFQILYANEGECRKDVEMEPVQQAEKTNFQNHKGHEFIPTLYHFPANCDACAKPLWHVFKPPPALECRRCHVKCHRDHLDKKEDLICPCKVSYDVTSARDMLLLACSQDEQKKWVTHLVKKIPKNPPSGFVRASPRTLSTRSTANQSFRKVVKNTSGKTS

Row | Compound | Ki [1] | Ki [2] | Ki [3] | Ratio Ki PKA/ROCK2 [4] | Ki [5]
1 | CN1CCC(CCNC(=O)c2cccc(CNc3ncc(-c4cn[nH]c4)c4c3CCO4)c2)CC1 [Example 16, 3-(((7-(1H-pyrazol-4-yl)-2,3-dihydrofuro[3,2-c]pyridin-4-yl)amino)methyl)-N-(2-(1-methylpiperidin-4-yl)ethyl)benzamide] | ≤ 3 nM | ≤ 3 nM | ≤ 3 nM | *** (ratio≥10) | ≤ 3 nM
2 | O=C(NCCC1CCN(C2COC2)CC1)c1cccc(CNc2ncc(-c3cn[nH]c3)c3c2CCO3)c1 [Example 28, 3-(((7-(1H-pyrazol-4-yl)-2,3-dihydrofuro[3,2-c]pyridin-4-yl)amino)methyl)-N-(2-(1-(oxetan-3-yl)piperidin-4-yl)ethyl)benzamide] | ≤ 3 nM | ≤ 3 nM | ≤ 3 nM | *** (ratio≥10) | ≤ 3 nM
3 | CN(C)C1CCc2nc(NC(=O)c3cccc(CNc4ncc(-c5cn[nH]c5)c5c4CCO5)c3)sc2C1 (centres unmarked) [Example 33, 3-(((7-(1H-Pyrazol-4-yl)-2,3-dihydrofuro[3,2-c]pyridin-4-yl)amino)methyl)-N-(6-(dimethylamino)-4,5,6,7-tetrahydrobenzo[d]thiazol-2-yl)benzamide] | ≤ 3 nM | ≤ 3 nM | ≤ 3 nM | *** (ratio≥10) | ≤ 3 nM
4 | O=C(Nc1nc2c(s1)CC(NC1COC1)CC2)c1cccc(CNc2ncc(-c3cn[nH]c3)c3c2CCO3)c1 (centres unmarked) [Example 34, 3-(((7-(1H-pyrazol-4-yl)-2,3-dihydrofuro[3,2-c]pyridin-4-yl)amino)methyl)-N-(6-(oxetan-3-ylamino)-4,5,6,7-tetrahydrobenzo[d]thiazol-2-yl)benzamide] | ≤ 3 nM | ≤ 3 nM | ≤ 3 nM | *** (ratio≥10) | ≤ 3 nM
